Laboratory results: patent US8093279B2, “Compound” (priority 2005, dated 2012)

Columns and labels:
Aromatase = molecular target: T1, Aromatase (Homo sapiens, UniProt P11511); assay: Aromatase activity in JEG3 choriocarcinoma cells (Protocol 6); type: cell-based; conditions: for IC50: JEG3 cells
T1 construct: host or cells: JEG3 choriocarcinoma cells (intact monolayers)
T1 sequence (P11511 1-503): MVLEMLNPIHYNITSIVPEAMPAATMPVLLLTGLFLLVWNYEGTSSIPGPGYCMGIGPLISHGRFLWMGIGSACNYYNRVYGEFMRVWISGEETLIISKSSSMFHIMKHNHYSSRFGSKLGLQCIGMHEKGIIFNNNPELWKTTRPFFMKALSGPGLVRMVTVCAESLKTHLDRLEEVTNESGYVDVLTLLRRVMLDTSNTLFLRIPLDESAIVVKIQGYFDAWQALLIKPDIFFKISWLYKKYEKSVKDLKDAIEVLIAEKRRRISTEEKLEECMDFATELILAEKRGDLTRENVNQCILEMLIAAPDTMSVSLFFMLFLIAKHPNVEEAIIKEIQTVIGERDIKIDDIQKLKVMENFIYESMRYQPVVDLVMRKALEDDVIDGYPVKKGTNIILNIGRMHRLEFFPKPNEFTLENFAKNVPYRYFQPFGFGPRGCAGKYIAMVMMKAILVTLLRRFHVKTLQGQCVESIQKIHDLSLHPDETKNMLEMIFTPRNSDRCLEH
Protocol: Aromatase activity is measured in JEG3 choriocarcinoma cells, obtained from the ATCC.
During the aromatase reaction, ^3H2O is liberated which can be quantified using a liquid scintillation spectrometer (Beckman-Coulter, High Wycombe, Bucks. UK). […] The number of cell nuclei per flask is determined using a Coulter Counter after treating the cell monolayers with Z aponin.
Unpaired Student's t test was used to test the statistical significance of results.
A number of compounds were tested for aromatase and steroid sulphatase inhibition in accordance with the above Protocols 1 and 6.

Row | melting point [°C] | JEG3-cells Aromatase, % at single concentration (Aromatase; @ 1 μM) [% @ 1 μM] | Compound | IC50 (Aromatase) [nM]
1 |  |  | CN(C)S(=O)(=O)Oc1ccc(-c2cc(Cn3cncn3)ccc2C#N)cc1 [Compound 21, 5′-((1H-1,2,4-triazol-1-yl)methyl)-2′-cyanobiphenyl-4-yl dimethylsulfamate] | < 1000
2 | 119 to 120 |  | CN(C)S(=O)(=O)Oc1ccc(-c2cc(Cn3cncn3)ccc2C#N)cc1Cl [Compound 24, 5′-((1H-1,2,4-triazol-1-yl)methyl)-3-chloro-2′-cyanobiphenyl-4-yl dimethylsulfamate] | < 1000
3 | 228 to 229 |  | N#Cc1ccc(Cn2cncn2)cc1-c1ccc(Cl)c(O)c1 [Compound 25] | < 1000
4 | 148 to 150 |  | N#Cc1ccc(Cn2cncn2)cc1-c1ccc(Cl)c(OS(N)(=O)=O)c1 [Compound 26, 5′-((1H-1,2,4-triazol-1-yl)methyl)-4-chloro-2′-cyanobiphenyl-3-yl sulfamate] | < 1000
5 | 137 to 138 | 63.4 ± 2.1 | N#Cc1ccc(-c2cccc(OS(N)(=O)=O)c2)cc1Cn1cncn1 [Compound 29, 3′-((1H-1,2,4-triazol-1-yl)methyl)-4′-cyanobiphenyl-3-yl sulfamate] | 
6 | 109 to 110 |  | N#Cc1cc(Cn2cncn2)cc(-c2ccccc2)c1 [Compound 34, 5-((1H-1,2,4-triazol-1-yl)methyl)biphenyl-3-carbonitrile] | < 1000
7 | 134 to 135 |  | N#Cc1cc(Cn2cncn2)cc(-c2ccc(F)cc2)c1 [Compound 35, 5-((1H-1,2,4-triazol-1-yl)methyl)-4′-fluorobiphenyl-3-carbonitrile] | < 1000
8 | 154 to 155 |  | N#Cc1ccc(-c2cc(C#N)cc(Cn3cncn3)c2)cc1 [Compound 36, 5-((1H-1,2,4-triazol-1-yl)methyl)biphenyl-3,4′-dicarbonitrile] | < 1000
9 | 186 to 187 |  | N#Cc1cc(Cn2cncn2)cc(-c2ccc(O)cc2)c1 [Compound 37, 5-((1H-1,2,4-triazol-1-yl)methyl)-4′-hydroxybiphenyl-3-carbonitrile] | < 1000
10 | 166 to 167 |  | N#Cc1cc(Cn2cncn2)cc(-c2ccc(OS(N)(=O)=O)cc2)c1 [Compound 38, 3′-((1H-1,2,4-triazol-1-yl)methyl)-5′-cyanobiphenyl-4-yl sulfamate] | < 1000
11 | 208 to 209 |  | N#Cc1cc(Cn2cncn2)cc(-c2ccc(O)c(Cl)c2)c1 [Compound 39] | < 1000
12 |  |  | N#Cc1cc(Cn2cncn2)ccc1-c1ccccc1 [Compound 46] | < 1000
13 | 168 to 171 |  | N#Cc1cc(Cn2cncn2)ccc1-c1ccc(O)cc1 [Compound 47] | < 1000
14 | 195 to 197 |  | N#Cc1cc(Cn2cncn2)ccc1-c1ccc(O)c(Cl)c1 [Compound 49, 4-((1H-1,2,4-triazol-1-yl)methyl)-3′-chloro-4′-hydroxybiphenyl-2-carbonitrile] | < 1000
15 |  |  | N#Cc1ccc(Cn2cncn2)c(-c2ccccc2)c1 [Compound 51] | < 1000
16 | 243 to 245 |  | N#Cc1ccc(Cn2cncn2)c(-c2ccc(O)c(Cl)c2)c1 [Compound 52, 6-((1H-1,2,4-triazol-1-yl)methyl)-3′-chloro-4′-hydroxybiphenyl-3-carbonitrile] | < 1000
17 | 139 to 142 |  | N#Cc1ccc(Cn2cncn2)c(-c2ccc(OS(N)(=O)=O)c(Cl)c2)c1 [Compound 53, 2′-((1H-1,2,4-triazol-1-yl)methyl)-3-chloro-5′-cyanobiphenyl-4-yl sulfamate] | < 1000
18 | 74 to 76 |  | CC(C)(C#N)c1cc(Cn2cncn2)cc(-c2ccc(OS(N)(=O)=O)cc2)c1 [Compound 56, 3′-((1H-1,2,4-triazol-1-yl)methyl)-5′-(2-cyanopropan-2-yl)biphenyl-4-yl sulfamate] | < 1000
19 |  |  | c1ccc(-c2cccc(Cn3cncn3)c2)cc1 [compound 1361] | < 1000
20 |  |  | c1ccc(COc2ccc(-c3cccc(Cn4cncn4)c3)cc2)cc1 [compound 1362] | < 10000

Row | melting point [°C] | JEG3-cells Aromatase, % at single concentration (Aromatase; @ 1 μM) [% @ 1 μM] | Compound | IC50 (Aromatase) [nM]
21 |  |  | Clc1cccc(-c2cccc(Cn3cncn3)c2)c1 [compound 1384] | < 1000
22 |  |  | c1cc(Cn2cncn2)cc(-c2ccc3ccccc3c2)c1 [compound 1385] | < 1000
23 |  |  | Clc1ccc(-c2cccc(Cn3cncn3)c2)cc1 [compound 1386] | < 1000
24 |  |  | Oc1ccc(-c2cccc(Cn3cncn3)c2)cc1 [compound 1387] | < 1000
25 |  |  | c1ccc(-c2ccc(-c3cccc(Cn4cncn4)c3)cc2)cc1 [compound 1388] | < 10000
26 |  |  | COc1ccc(-c2cccc(Cn3cncn3)c2)cc1 [compound 1452] | < 1000
27 |  |  | N#Cc1ccc(-c2ccccc2)cc1Cn1cncn1 [compound 1456] | < 1000
28 |  |  | N#Cc1ccc(-c2ccc(OCc3ccccc3)cc2)cc1Cn1cncn1 [compound 1457] | < 10000
29 |  |  | N#Cc1cccc(-c2cccc(Cn3cncn3)c2)c1 [compound 1458] | < 1000
30 |  |  | N#Cc1ccc(-c2cccc(Cn3cncn3)c2)cc1 [compound 1459] | < 1000
31 |  |  | Clc1cc(-c2cccc(Cn3cncn3)c2)ccc1OCc1ccccc1 [compound 1502] | < 10000
32 |  |  | N#Cc1ccc(-c2cccc(Cl)c2)cc1Cn1cncn1 [compound 1503] | < 1000
33 |  |  | N#Cc1ccc(-c2ccc3ccccc3c2)cc1Cn1cncn1 [compound 1504] | < 1000
34 |  |  | N#Cc1cccc(-c2ccc(C#N)c(Cn3cncn3)c2)c1 [compound 1505] | < 10000
35 |  |  | CC(C)(C#N)c1cc(Cn2cncn2)cc(-c2ccccc2)c1 [compound 1506] | < 1000
36 |  |  | CC(C)(C#N)c1cc(Cn2cncn2)cc(-c2cccc(Cl)c2)c1 [compound 1507] | < 1000
37 |  |  | CC(C)(C#N)c1cc(Cn2cncn2)cc(-c2ccc3ccccc3c2)c1 [compound 1508] | < 1000
38 |  |  | CC(C)(C#N)c1cc(Cn2cncn2)cc(-c2cccc(C#N)c2)c1 [compound 1509] | < 1000
39 |  |  | N#Cc1ccc(-c2ccc(C#N)c(Cn3cncn3)c2)cc1 [compound 1510] | < 1000
40 |  |  | O=C(c1ccccc1)c1cccc(-c2cccc(Cn3cncn3)c2)c1 [compound 1511] | < 1000

Row | melting point [°C] | JEG3-cells Aromatase, % at single concentration (Aromatase; @ 1 μM) [% @ 1 μM] | Compound | IC50 (Aromatase) [nM]
41 |  |  | COc1ccc(-c2cccc(Cn3cncn3)c2)cc1Cl [compound 1512] | < 1000
42 |  |  | Oc1ccc(-c2cccc(Cn3cncn3)c2)cc1Cl [compound 1519] | < 1000
43 |  |  | N#Cc1ccc(-c2ccc(O)cc2)cc1Cn1cncn1 [compound 1520] | < 1000
44 |  |  | CC(C)(C#N)c1cc(Cn2cncn2)cc(-c2ccc(O)cc2)c1 [compound 1521] | < 1000
45 |  |  | Fc1cccc(-c2cccc(Cn3cncn3)c2)c1 [compound 1524] | < 1000
46 |  |  | Fc1ccc(-c2cccc(Cn3cncn3)c2)cc1 [compound 1525] | < 1000
47 |  |  | c1ccc(Oc2ccccc2-c2ccc(Cn3cncn3)cc2)cc1 [compound 1835] | < 1000
48 |  |  | CC(=O)c1cccc(-c2cccc(Cn3cncn3)c2)c1 [compound 1838] | < 1000
49 |  |  | c1cc(Cn2cncn2)cc(-c2cccc3c2oc2ccccc23)c1 [compound 1839] | < 1000
50 |  |  | Oc1cccc(-c2cccc(Cn3cncn3)c2)c1 [compound 1840] | < 1000
51 |  |  | Fc1ccc(-c2ccccc2)cc1Cn1cncn1 [compound 1841] | < 1000
52 |  |  | Oc1ccc(-c2ccc(F)c(Cn3cncn3)c2)cc1 [compound 1842] | < 1000
53 |  |  | N#Cc1ccc(-c2cccc(O)c2)cc1Cn1cncn1 [compound 1843] | < 1000
54 |  |  | CC(C)(C#N)c1cc(Cn2cncn2)cc(-c2cccc(C(=O)c3ccccc3)c2)c1 [compound 1844] | < 1000
55 |  |  | c1ccc(-c2ccc(Cn3cncn3)cc2)cc1 [compound 1975] | < 10000
56 |  |  | N#Cc1ccc(Cn2cncn2)cc1-c1ccccc1 [compound 1978] | < 1000
57 |  |  | COc1ccc2cc(-c3cccc(Cn4cncn4)c3)ccc2c1 [compound 1981] | < 1000
58 |  |  | NS(=O)(=O)Oc1ccc2cc(-c3cccc(Cn4cncn4)c3)ccc2c1 [compound 2052] | < 10000
